Tests used:
[1] = test system: NCI/ADR-RES human breast cancer cells; assay: Colony formation assay, NCI/ADR-RES cells; format: cell-based; settings: 72 hours with compound, colonies counted after 14 days
Method: NCI/ADR-RES human breast cancer cells (500 cells), HCT116 human colon cancer cells (400 cells) or SF 295 human glioblastoma cells (1000 cells) were plated in 60 mm Petri dishes containing 2.7 ml of medium (modified McCoy's 5a medium containing 10% fetal bovine serum and 100 units/ml penicillin and 100 μg/ml streptomycin). The cells were incubated in a CO2 incubator at 37° C. for 5 hours for attachment to the bottom of Petri dishes. Compounds were prepared fresh in medium at ten times the final concentration, and then 0.3 ml of this stock solution was added to the 2.7 ml of medium in the dish. The cells were then incubated with compounds for 72 hours at 37° C. At the end of incubation, the compound-containing media were decanted, the dishes were rinsed with 4 ml of Hank's Balance Salt Solution (HBSS), 5 ml of fresh medium was added, and the dishes were returned to the incubator for colony formation. The cell colonies were counted using a colony counter after incubation for 14 days for NCI/ADR-RES cells and 10 days for HCT116 cells and SF 295 cells. Cell survival was calculated and the IC50 values (the drug concentration producing 50% inhibition of colony formation) were determined for each tested compound.

[2] = test system: SF 295 human glioblastoma xenografts; assay: In vivo efficacy, SF 295 xenografts in nude mice; settings: D11B 382 mg/kg single i.p. injection
Method: In vivo anticancer efficacy studies were performed on nude mice (nu/nu genotype) bearing SF 295 human glioblastoma xenografts. […]. Treatment was initiated at that time, with the first day of treatment designated as day 0 for all calculations and plots. […] Compound doses were 382 mg/kg for D11B, 212 mg/kg for D15B, 5 mg/kg for D25B, and 10.6 mg/kg for D35B. Mice in the control group bearing 3 mm diameter tumors was treated with vehicle alone. After treatment, tumor sizes were measured by caliper every day. Daily measurements of the tumor diameters (d1, d2) in two orthogonal directions was used to calculate the tumor volume (tumor volume=π/6{(d1+d2)/2}^3) using the approximation that the tumors were spherical. The values of time (days) required to grow the tumor to twice their initial size after various treatments was calculated as tumor doubling time (TDT) for evaluating the treatment effects. Survival times and curative effects after treatment were also observed and recorded.

in vivo = settings: C3H/HeN, mouse, ip
Method: The MTD40 (maximum tolerated dose at day 40) values were determined on normal C3H/HeN mice using standard procedures. […] The result of this exercise was two dosages, one apparently nonlethal and the other lethal, if severe and irreversible toxicity occurred and euthanasia was required. Six mice were dosed at each dosage. If no severe and irreversible toxicity occurred at the lower dosage and at least one with severe and irreversible toxicity at the higher dose, then the lower dose was considered to be the MTD.
Compounds were administered to C3H/HeN mice by intraperitoneal injection (5% alcohol, 5% CREMOPHOR® EL, and 90% saline, 0.5 ml/20 gram, single injection). Drug toxicity was evaluated on mice checked daily for 40 days. The toxicity parameters reported were the MTD40. […] At the end of experiment, all mice were euthanized.
The toxicity parameters reported were the MTD40. At the end of experiment, all mice will be euthanized.

c1ccc2c(Nc3ccc(Oc4ccc(Nc5c6ccccc6nc6ccccc56)cc4)cc3)c3ccccc3nc2c1 [Compound D11B]
IC50 [1]: 1310 nM
Curative effect [2]: one mouse was even cured
Ratio of TDTs (D11B treated over control) [2]: 9.8
TDT (tumor doubling time) ([2]; control group 2.5 days): 24.5 days
Mean survival time ([2]; control group 40.5 days): ≥ 58.67 days
MTD at 40 days (in vivo): 450 mg/kg
